Data on 6 molecules can be found in US6821965B1, “Amidobenzamide derivatives which are useful as cytokine inhibitors” (AsterZeneca AB, priority 1998, dated 2004).

The subject of experiment [1] is TNFα production by human peripheral blood mononuclear cells. The experiment is described as follows: PBMC test: LPS-stimulated TNFα production. Type of experiment: cell-based. The conditions noted are these: approximate value. As to the method: The ability of compounds of this invention to inhibit TNFα production was assessed by using human peripheral blood mononuclear cells which synthesise and secrete TNFα when stimulated with lipopolysaccharide.
Peripheral blood mononuclear cells (PBMC) were isolated from heparinised (10 units/ml heparin) human blood by density centrifugation (Lymphoprep™; Nycomed). Mononuclear cells were resuspended in culture medium [RPMI 1640 medium (Gibco) supplemented with 50 units/ml penicillin, 50 μg/ml streptomycin, 2 mM glutamine and 1% heat-inactivated human AB serum (Sigma H-1513)]. Compounds were solubilised in DMSO at a concentration of 50 mM, diluted 1:100 in culture medium and subsequently serial dilutions were made in culture medium containing 1% DMSO. PBMCs (2.4×10^5 cells in 160 μl culture medium) were incubated with 20 μl of varying concentrations of test compound (triplicate cultures) or 20 μl culture medium containing 1% DMSO (control wells) for 30 minutes at 37° C. in a humidified (5% CO2/95% air) incubator (Falcon 3072; 96 well flat-bottom tissue culture plates). 20 μl lipopolysaccharide [LPS E. Coli 0111:B4 (Sigma L-4130), final concentration 10 μg/ml] solubilised in culture medium was added to appropriate wells. 20 μl culture medium was added to “medium alone” control wells. Six “LPS alone” and four “medium alone” controls were included on each 96 well plate. Varying concentrations of a known TNFα inhibitor were included in each test, i.e. an inhibitor of the PDE Type IV enzyme (for example see Semmler, J. Wachtel. H and Endres, S., Int. J. Immunopharmac. (1993), 15(3), 409-413) or an inhibitor of proTNFα convertase (for example, see McGeehan, G. M. el al. Nature (1994) 370, 558-561). Plates were incubated for 7 hours at 37° C. (humidified incubator) after which 100 μl of the supernatant was removed from each well and stored at −70° C. (96 well round-bottom plates; Corning 25850). TNFα levels were determined in each sample using a human TNFα ELISA (see WO92/10190 and Current Protocols in Molecular Biology, vol 2 by Frederick M. Ausbel et al., John Wiley and Sons Inc.). […]

The target of the next experiment is T1, p38α (Homo sapiens, UniProt Q16539).
T1 construct: c-myc (N); 6His (N); made in house; host or cells: E. coli (PET vectors)
As to the kind of experiment: In vitro enzyme assay, p38α kinase. Type of experiment: biochemical. The conditions noted are these: approximate value; read-out: IC50 against p38α. On the procedure:
The ability of compounds of the invention to inhibit the enzyme p38 kinase was assessed. Activity of test compounds against each of the p38α and p38β isoforms of the enzyme was determined.
Human recombinant MKK6 (GenBank Accesion Number G1209672) was isolated from Image clone 45578 (Genomics 1996, 33, 151) and utilised to produce protein in the form of a GST fusion protein in a pGEX vector using analogous procedures to those disclosed by J. Han el al., Journal of Biological Chemistry, 1996, 271, 2886-2891. p38α (GenBank Accession Number G529039) and p38β (GenBank Accession Number G1469305) were isolated by PCR amplification of human lymphoblastoid cDNA (GenBank Accession Number GM1416) and human foetal brain cDNA [synthesised from mRNA (Clontech, catalogue no. 6525-1) using a Gibco superscript cDNA synthesis kit] respectively using oligonucleotides designed for the 5′ and 3′ ends of the human p38α and p38β genes using analogous procedures to those described by J. Han et al., Biochimica et Biophysica Acta, 1995, 1265, 224-227 and Y. Jiang et al., Journal of Biological Chemistry 1996, 271, 17920-17926.
Both p38 protein isoforms were expressed in e coli in PET vectors. Human recombinant p38α and p38β isoforms were produced as 5′ c-myc, 6His tagged proteins. Both MKK6 and the p38 proteins were purified using standard protocols: the GST MKK6 was purified using a glutathione sepharose column and the p38 proteins were purified using nickel chelate columns.
The p38 enzymes were activated prior to use by, incubation with MKK6 for 3 hours at 30° C. The unactivated coli-expressed MKK6 retained sufficient activity to fully activate both isoforms of p38. The activation incubate comprised p38α (10 μl of 10 mg/ml) or p38β (10 μl of 5 mg/ml) together with MKK6 (10 μl of 1 mg/ml), ‘Kinase buffer’ [100 μl; pH 7.4 buffer comprising Tris (50 mM), EGTA (0.1 mM), sodium orthovanadate (0.1 mM) and β-mercaptoethanol (0.1%)] and MgATP (30 μl of 50 mM Mg(OCOCH3)2 and 0.5 mM ATP). This produced enough activated p38 enzyme for 3 Microtiter plates.
Test compounds were solubilised in DMSO and 10 μl of a 1:10 diluted sample in ‘Kinase Buffer’ was added to a well in a Microtiter plate. For single dose testing, the compounds were tested at 10 μM. ‘Kinase Assay Mix’ [30 μl; comprising Myelin Basic Protein (Gibco BRL cat no. 1322B-θ10; 1 ml of a 3.33 mg/ml solution in water), activated p38 enzyme (50 μl) and ‘Kinase Buffer’ (2 ml)] was then added followed by ‘Labelled ATP’ [10 μl; comprising 50 μM ATP, 0.1 μCi^33P ATP (Amersham International cat. no. BF 1000) and 50 mM Mg(OCOCH3)21]. The plates were incubated at room temperature with gentle agitation. Plates containing p38α were incubated for 90 min and plates containing p38β were incubated for 45 min. Incubation was stopped by the addition of 50 μl of 20% trichloroacetic acid (TCA). The precipitated protein was phosphorylated by p38 kinase and test compounds were assessed for their ability to inhibit this phosphorylation. The plates were filtered using a Canberra Packard Unifilter and washed with 2% TCA, dried overnight and counted on a Top Count scintillation counter.
Test compounds were tested initially at a single dose and active compounds were retested to allow IC50 values to be determined.

For experiment [2], the system named is TNFα production in human whole blood. The experiment is described as follows: Human Whole Blood (HWB) test: LPS-stimulated TNFα production. Type of experiment: cell-based. The conditions noted are these: approximate value. On the procedure: The ability of the compounds of this invention to inhibit TNFα production was also assessed in a human whole blood assay. Human whole blood secretes TNFα when stimulated with LPS. This property of blood forms the basis of an assay which is used as a secondary test for compounds which profile as active in the PBMC test.
Heparinised (10 units/ml) human blood was obtained from volunteers. 160 μl whole blood were added to 96 well round-bottom plates (Corning 25850). Compounds were solubilised and serially diluted in RPMI 1640 medium (Gibco) supplemented with 50 units/ml penicillin, 50 μg/ml streptomycin and 2 mM glutamine, as detailed above. 20 μl of each test concentration was added to appropriate wells (triplicate cultures). 20 μl of RPMI 1640 medium supplemented with antibiotics and glutamine was added to control wells. Plates were incubated for 30 minutes at 37° C. (humidified incubator), prior to addition of 20 μl LPS (final concentration 10 μg/ml). RPMI 1640 medium was added to control wells. Six “LPS alone” and four “medium alone” controls were included on each plate. A known TNFαsynthesis/secretion inhibitor was included in each test. Plates were incubated for 6 hours at 37° C. (humidified incubator). Plates were centrifuged (2000 rpm for 10 minutes) and 100 μl plasma removed and stored at −70° C. (Corning 25850 plates). TNFα levels were measured by ELISA (see WO92/10190 and Current Protocols in Molecular Biology, vol 2 by Frederick M. Ausbel et al., John Wiley and Sons Inc.). The paired antibodies that were used in the ELIZA were obtained from R&D Systems (catalogue nos. MAB610 anti-human TNFα coating antibody, BAF210 biotinylated anti-human TNFα detect antibody).

T1 sequence (Q16539 whole entry): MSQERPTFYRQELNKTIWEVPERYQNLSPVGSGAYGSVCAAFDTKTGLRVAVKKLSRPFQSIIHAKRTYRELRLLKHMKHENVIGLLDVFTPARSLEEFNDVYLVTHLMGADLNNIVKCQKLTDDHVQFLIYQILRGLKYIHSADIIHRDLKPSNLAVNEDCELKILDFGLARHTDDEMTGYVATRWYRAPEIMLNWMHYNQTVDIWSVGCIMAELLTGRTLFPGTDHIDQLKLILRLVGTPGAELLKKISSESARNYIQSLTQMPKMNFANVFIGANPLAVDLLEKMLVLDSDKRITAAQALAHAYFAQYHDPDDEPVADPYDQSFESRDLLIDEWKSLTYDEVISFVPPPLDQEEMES

As to `CCCc1ccc(C(=O)Nc2cc(C(=O)Nc3cccc(N(C)C)c3)ccc2C)cc1` [Example 3, Compound No. 1, N-(3-dimethylaminophenyl)-4-methyl-3-(4-propylbenzamido)benzamide], the IC50 (commonly the concentration needed to halve the response being measured) was approximately 6000 nM in experiment [1] and approximately 300 nM at p38α.
Take `COc1ccc(C(=O)Nc2cc(C(=O)NCCC3CCCCC3)ccc2C)cc1OC` [Example 11, N-(2-cyclohexylethyl)-3-(3,4-dimethoxybenzamido)-4-methylbenzamide]: the IC50 was approximately 8000 nM in experiment [1] and approximately 1000 nM at p38α.
Take `Cc1ccc(C(=O)Nc2cccc(N(C)C)c2)cc1NC(=O)c1ccc2ncccc2c1` [Example 12, N-(3-dimethylaminophenyl)-4-methyl-3-(6-quinolylcarbonylamino)benzamide]: the half-inhibitory concentration (IC50) in experiment [1] was approximately 22000 nM; on p38α it was approximately 700 nM.
As for `Cc1ccc(C(=O)Nc2cccc(N3CCOCC3)c2)cc1NC(=O)c1cccc(OC2CCNCC2)c1` [Example 20, 4-methyl-N-(3-morpholinophenyl)-3-(3-piperidin-4-yloxybenzamido)benzamide], the figures for the 50% inhibitory concentration (IC50) (in experiment [2]; at p38α) were approximately 2000 nM and approximately 50 nM, respectively.
For `Cc1ccc(C(=O)Nc2cccc(N3CCOCC3)c2)cc1NC(=O)c1cccc(CN2CCN(C)CC2)c1` [Example 30, 4-methyl-3-[3-(4-methylpiperazin-1-ylmethyl)benzamido]-N-(3-morpholinophenyl)benzamide], in that order: approximately 5000 nM and approximately 50 nM.
For `CCN(CC)Cc1ccc(C(=O)Nc2cc(C(=O)Nc3cccc(N4CCOCC4)c3)ccc2C)cc1` [Example 31(4), 4-methyl-3-(4-diethylaminomethylbenzamido)-N-(3-morpholinophenyl)benzamide], in that order: approximately 15000 nM and approximately 300 nM.
